Measurements published in ChEMBL document CHEMBL5614405 (J Med Chem, 2024).
Calls of active or inactive are those of the source. The calls are words filed in the database; no cut-off is given here.

What was measured:
[1] = biological target: T1, Rho-associated protein kinase 1 (Homo sapiens, UniProt Q13464); experiment: Inhibition of ROCK1 (unknown origin) incubated for 10 mins in presence of ATP by mobility shift assay
Target sequence in this assay (Q13464 whole entry): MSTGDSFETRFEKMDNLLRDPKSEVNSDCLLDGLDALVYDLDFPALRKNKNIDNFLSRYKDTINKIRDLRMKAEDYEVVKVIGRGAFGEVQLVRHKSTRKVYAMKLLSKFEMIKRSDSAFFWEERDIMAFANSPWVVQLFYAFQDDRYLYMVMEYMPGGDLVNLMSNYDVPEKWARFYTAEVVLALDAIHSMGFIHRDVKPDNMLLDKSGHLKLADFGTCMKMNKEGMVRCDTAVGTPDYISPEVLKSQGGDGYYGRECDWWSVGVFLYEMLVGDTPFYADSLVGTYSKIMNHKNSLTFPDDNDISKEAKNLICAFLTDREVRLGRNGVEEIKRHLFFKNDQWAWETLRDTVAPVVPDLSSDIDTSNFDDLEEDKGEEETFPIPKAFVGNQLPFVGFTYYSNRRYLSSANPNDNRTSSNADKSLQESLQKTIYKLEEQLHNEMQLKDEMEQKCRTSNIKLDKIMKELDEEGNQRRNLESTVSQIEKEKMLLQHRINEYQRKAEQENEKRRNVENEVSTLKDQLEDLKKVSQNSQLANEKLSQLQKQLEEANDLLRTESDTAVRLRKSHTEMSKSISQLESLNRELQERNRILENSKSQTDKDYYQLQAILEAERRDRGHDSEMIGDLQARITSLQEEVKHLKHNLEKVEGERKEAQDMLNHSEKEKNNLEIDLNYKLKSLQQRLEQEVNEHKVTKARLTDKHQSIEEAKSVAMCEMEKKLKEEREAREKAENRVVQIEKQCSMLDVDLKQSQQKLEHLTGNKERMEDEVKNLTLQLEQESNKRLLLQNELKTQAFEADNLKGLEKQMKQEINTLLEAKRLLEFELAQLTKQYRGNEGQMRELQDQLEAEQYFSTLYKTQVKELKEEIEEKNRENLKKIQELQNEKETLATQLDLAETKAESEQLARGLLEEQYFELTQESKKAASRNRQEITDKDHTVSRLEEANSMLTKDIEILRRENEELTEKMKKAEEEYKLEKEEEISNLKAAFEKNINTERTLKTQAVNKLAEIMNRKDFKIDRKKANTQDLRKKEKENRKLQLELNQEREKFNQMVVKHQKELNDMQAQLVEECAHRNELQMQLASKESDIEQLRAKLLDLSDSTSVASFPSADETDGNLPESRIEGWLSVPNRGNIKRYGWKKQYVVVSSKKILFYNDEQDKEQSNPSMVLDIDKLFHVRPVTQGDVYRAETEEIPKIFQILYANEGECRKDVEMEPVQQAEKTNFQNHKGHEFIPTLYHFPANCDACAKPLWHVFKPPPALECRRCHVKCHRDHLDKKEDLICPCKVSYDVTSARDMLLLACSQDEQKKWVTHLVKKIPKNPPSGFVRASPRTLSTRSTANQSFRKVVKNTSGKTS

[2] = biological target: T2, Rho-associated protein kinase 2 (Homo sapiens, UniProt O75116); experiment: Inhibition of ROCK2 (unknown origin) incubated for 60 mins in presence of ATP by mobility shift assay
Target sequence in this assay (O75116 whole entry): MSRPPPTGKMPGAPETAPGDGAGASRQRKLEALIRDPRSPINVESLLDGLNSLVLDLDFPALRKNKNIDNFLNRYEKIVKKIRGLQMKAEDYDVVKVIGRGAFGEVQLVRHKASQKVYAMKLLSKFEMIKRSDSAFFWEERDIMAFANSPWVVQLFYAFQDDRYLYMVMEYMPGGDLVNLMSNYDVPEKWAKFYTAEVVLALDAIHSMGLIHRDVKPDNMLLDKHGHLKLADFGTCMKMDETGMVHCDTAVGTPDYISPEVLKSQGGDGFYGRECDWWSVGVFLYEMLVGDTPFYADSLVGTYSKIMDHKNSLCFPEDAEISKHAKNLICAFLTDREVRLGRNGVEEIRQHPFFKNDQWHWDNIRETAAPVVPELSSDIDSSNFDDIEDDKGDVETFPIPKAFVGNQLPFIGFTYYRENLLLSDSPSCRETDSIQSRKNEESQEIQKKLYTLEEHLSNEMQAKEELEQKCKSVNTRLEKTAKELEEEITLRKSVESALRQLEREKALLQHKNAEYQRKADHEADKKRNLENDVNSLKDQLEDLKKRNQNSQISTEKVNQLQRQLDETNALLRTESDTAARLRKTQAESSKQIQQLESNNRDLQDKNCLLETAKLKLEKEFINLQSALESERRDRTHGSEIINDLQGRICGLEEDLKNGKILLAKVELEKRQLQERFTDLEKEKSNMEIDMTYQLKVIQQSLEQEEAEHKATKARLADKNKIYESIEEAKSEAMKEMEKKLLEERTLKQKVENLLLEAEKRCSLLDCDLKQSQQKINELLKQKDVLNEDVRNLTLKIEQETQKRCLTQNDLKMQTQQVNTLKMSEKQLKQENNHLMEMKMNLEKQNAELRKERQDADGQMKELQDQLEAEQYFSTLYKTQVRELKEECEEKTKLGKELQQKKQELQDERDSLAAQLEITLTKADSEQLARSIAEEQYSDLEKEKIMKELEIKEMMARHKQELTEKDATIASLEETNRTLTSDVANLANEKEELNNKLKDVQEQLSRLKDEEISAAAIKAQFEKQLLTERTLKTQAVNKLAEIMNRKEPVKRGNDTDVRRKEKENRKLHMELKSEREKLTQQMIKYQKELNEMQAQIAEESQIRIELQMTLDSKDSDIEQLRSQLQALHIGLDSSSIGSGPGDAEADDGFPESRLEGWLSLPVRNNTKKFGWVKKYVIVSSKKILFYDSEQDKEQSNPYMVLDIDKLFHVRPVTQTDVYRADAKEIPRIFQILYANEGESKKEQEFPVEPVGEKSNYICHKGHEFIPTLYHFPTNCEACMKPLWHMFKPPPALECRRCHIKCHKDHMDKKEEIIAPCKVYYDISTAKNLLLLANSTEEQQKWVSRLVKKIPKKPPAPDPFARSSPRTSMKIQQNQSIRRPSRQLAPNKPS

[3] = biological target: T1, Rho-associated protein kinase 1; experiment: Inhibition of ROCK1 (unknown origin) assessed as fold change at 3 uM incubated for 10 mins in presence of ATP by mobility shift assay relative to control
Target sequence in this assay (Q13464 2-1354 limits assumed): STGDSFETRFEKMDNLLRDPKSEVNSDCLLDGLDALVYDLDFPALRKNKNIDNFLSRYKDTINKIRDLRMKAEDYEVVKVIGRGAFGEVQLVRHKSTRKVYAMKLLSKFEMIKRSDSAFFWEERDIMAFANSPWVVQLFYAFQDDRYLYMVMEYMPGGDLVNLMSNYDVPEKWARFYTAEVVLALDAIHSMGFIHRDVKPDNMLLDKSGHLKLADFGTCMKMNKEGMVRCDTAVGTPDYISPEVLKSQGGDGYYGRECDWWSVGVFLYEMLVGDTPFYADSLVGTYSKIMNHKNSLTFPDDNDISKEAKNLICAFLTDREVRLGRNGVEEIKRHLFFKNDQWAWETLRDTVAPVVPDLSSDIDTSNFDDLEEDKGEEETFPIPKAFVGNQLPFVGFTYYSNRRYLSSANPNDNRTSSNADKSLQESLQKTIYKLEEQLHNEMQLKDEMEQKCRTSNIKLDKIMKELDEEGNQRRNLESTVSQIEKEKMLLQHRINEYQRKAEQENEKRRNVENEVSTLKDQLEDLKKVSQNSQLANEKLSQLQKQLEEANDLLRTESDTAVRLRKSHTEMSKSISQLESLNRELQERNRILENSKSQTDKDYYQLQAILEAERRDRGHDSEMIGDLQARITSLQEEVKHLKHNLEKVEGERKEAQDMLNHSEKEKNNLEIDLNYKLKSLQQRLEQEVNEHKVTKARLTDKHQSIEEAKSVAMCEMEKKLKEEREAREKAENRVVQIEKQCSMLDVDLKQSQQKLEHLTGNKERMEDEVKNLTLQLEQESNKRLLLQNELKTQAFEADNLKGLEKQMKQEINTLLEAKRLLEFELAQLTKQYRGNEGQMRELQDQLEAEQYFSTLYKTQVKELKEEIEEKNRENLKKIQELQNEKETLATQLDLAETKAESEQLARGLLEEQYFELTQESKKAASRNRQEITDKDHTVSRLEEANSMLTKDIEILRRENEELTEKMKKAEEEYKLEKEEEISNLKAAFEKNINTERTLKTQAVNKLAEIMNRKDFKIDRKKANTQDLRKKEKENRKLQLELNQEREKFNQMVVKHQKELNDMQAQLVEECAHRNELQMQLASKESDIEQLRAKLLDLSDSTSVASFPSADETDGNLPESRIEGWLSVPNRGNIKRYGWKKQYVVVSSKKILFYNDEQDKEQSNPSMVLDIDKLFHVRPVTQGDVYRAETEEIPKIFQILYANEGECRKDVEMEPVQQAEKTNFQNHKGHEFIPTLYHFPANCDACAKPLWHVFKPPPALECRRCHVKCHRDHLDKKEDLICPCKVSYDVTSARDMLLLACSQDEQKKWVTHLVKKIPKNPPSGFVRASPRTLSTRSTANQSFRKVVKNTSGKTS

[4] = biological target: T2, Rho-associated protein kinase 2; experiment: Inhibition of ROCK2 (unknown origin) assessed as fold change at 3 uM incubated for 60 mins in presence of ATP by mobility shift assay
Target sequence in this assay (O75116 whole entry, looked up): as the sequence (O75116 whole entry) above

Oryctolagus cuniculus [5] = experiment: (§1) Anti-glaucoma activity in methylcellulose-induced acute intraocular hypertensive New Zealand rabbit model assessed as reduction in intraocular pressure at 1.55 mM,TOP administration on conjunctival sac measured upto 24 hrs relative to Netarsudil; format: functional, organism-based
Oryctolagus cuniculus [6] = experiment: as §1, with “(R)-4-(3-amino-1-(isoquinolin-6-ylamino)-1-oxopropan-2-yl)benzyl 3-((nitrooxy)methyl)benzoate Dimethanesulfonate” for “Netarsudil”; format: functional, organism-based
Oryctolagus cuniculus [7] = experiment: Anti-glaucoma activity in methylcellulose-induced acute intraocular hypertensive New Zealand rabbit model assessed as reduction in intraocular pressure at 441.27 uM,TOP administration on conjunctival sac measured after 3 hrs relative to Netarsudil; format: functional, organism-based
Oryctolagus cuniculus [8] = experiment: Anti-glaucoma activity in methylcellulose-induced acute intraocular hypertensive New Zealand rabbit model assessed as reduction in intraocular pressure at 441.27 uM,TOP administration on conjunctival sac measured for 4 to 24 hrs relative to Netarsudil; format: functional, organism-based; details: time 4-24 hrs
Mus musculus [9] = experiment: Anti-glaucoma activity in magnetic microbead induced occlusion C57BL/6J mouse model assessed as reduction in intraocular pressure at 441.27 uM,TOP administration on right eye measured after 1 hr by tonometric analysis; format: functional, organism-based
Mus musculus [10] = experiment: Anti-glaucoma activity in magnetic microbead induced occlusion C57BL/6J mouse model assessed as reduction in intraocular pressure at 441.27 uM,TOP administration on right eye measured upto 8 hr by tonometric analysis relative to Netarsudil; format: functional, organism-based
Mus musculus [11] = experiment: Anti-glaucoma activity in magnetic microbead induced occlusion C57BL/6J mouse model assessed as increase in retinal ganglion cell population at 441.27 uM,TOP administrated on right eye thrice a day for 21 days by immunofluorescence based confocal microscopic analysis; format: functional, organism-based; details: time 21.0 day
Mus musculus [12] = experiment: Anti-glaucoma activity in magnetic microbead induced occlusion C57BL/6J mouse model assessed as increase in retinal ganglion cell population at 441.27 uM,TOP administrated on right eye thrice a day for 21 days by immunofluorescence based confocal microscopic analysis relative to Netarsudil; format: functional, organism-based; details: time 21.0 day
Mus musculus [13] = experiment: Anti-glaucoma activity in magnetic microbead induced occlusion C57BL/6J mouse model assessed as increase in retinal ganglion cell density at 441.27 uM,TOP administrated on right eye thrice a day for 21 days by immunofluorescence based confocal microscopic analysis relative to control; format: functional, organism-based; details: time 21.0 day
[14] = Unbound drug concentration in New Zealand rabbit cornea at 1.55 mM TOP administration on eye measured upto 1 hr by LC-MS/MS analysis; format: ADME, tissue-based, Oryctolagus cuniculus; details: in vivo, topical_or_ocular, 1550 µM
[15] = Drug metabolism in New Zealand rabbit cornea assessed as 3-(hydroxymethyl)benzoic acid metabolite formation at 1.55 mM TOP administration on eye measured upto 1 hr by LC-MS/MS analysis; format: ADME, tissue-based, Oryctolagus cuniculus; details: in vivo, topical_or_ocular, 1550 µM
[16] = Unbound drug concentration in New Zealand rabbit cornea at 1.55 mM TOP administration on eye measured upto 3 hr by LC-MS/MS analysis; format: ADME, tissue-based, Oryctolagus cuniculus; details: in vivo, topical_or_ocular, 1550 µM
[17] = Drug metabolism in New Zealand rabbit cornea assessed as 3-(hydroxymethyl)benzoic acid metabolite formation at 1.55 mM TOP administration on eye measured upto 3 hr by LC-MS/MS analysis; format: ADME, tissue-based, Oryctolagus cuniculus; details: in vivo, topical_or_ocular, 1550 µM
[18] = Drug metabolism in New Zealand rabbit cornea assessed as 3-(hydroxymethyl)benzoic acid metabolite formation at 1.55 mM TOP administration on eye measured after 4 hr by LC-MS/MS analysis; format: ADME, tissue-based, Oryctolagus cuniculus; details: in vivo, topical_or_ocular, 1550 µM
[19] = Drug metabolism in New Zealand rabbit cornea assessed as 3-((nitrooxy)methyl)benzoic acid metabolite formation at 1.55 mM TOP administration on eye measured upto 6 hr by LC-MS/MS analysis; format: ADME, tissue-based, Oryctolagus cuniculus; details: in vivo, topical_or_ocular, 1550 µM
[20] = Drug metabolism in New Zealand rabbit aqueous humor of eyeball assessed as (S)-3-amino-2-(4-(hydroxymethyl)phenyl)-N-(isoquinolin-6-yl)propanamide Dimethanesulfonate metabolite formation at 1.55 mM TOP administration on eye measured after 4 hrs by LC-MS/MS analysis; format: ADME, Oryctolagus cuniculus; details: in vivo, topical_or_ocular, 1550 µM
[21] = Drug metabolism in New Zealand rabbit aqueous humor of eyeball assessed as 3-(hydroxymethyl)benzoic acid metabolite formation at 1.55 mM TOP administration on eye measured after 4 hrs by LC-MS/MS analysis; format: ADME, Oryctolagus cuniculus; details: in vivo, topical_or_ocular, 1550 µM
[22] = Drug metabolism in New Zealand rabbit aqueous humor of eyeball assessed as (S)-3-amino-2-(4-(hydroxymethyl)phenyl)-N-(isoquinolin-6-yl)propanamide Dimethanesulfonate metabolite formation at 1.55 mM TOP administration on eye measured after 4 to 6 hrs by LC-MS/MS analysis; format: ADME, tissue-based, Oryctolagus cuniculus; details: in vivo, topical_or_ocular, 1550 µM, time 4-6 hrs
[23] = Drug metabolism in New Zealand rabbit aqueous humor of eyeball assessed as 3-(hydroxymethyl)benzoic acid metabolite formation at 1.55 mM TOP administration on eye measured after 4 to 6 hrs by LC-MS/MS analysis; format: ADME, Oryctolagus cuniculus; details: in vivo, topical_or_ocular, 1550 µM, time 4-6 hrs
[24] = Unbound drug concentration in New Zealand rabbit aqueous humor of eyeball at 1.55 mM TOP administration on eye measured upto 6 hr by LC-MS/MS analysis; format: ADME, tissue-based, Oryctolagus cuniculus; details: in vivo, topical_or_ocular, 1550 µM
[25] = Drug metabolism in New Zealand rabbit aqueous humor of eyeball assessed as 3-((nitrooxy)methyl)benzoic acid metabolite formation at 1.55 mM TOP administration on eye measured upto 6 hrs by LC-MS/MS analysis; format: ADME, tissue-based, Oryctolagus cuniculus; details: in vivo, topical_or_ocular, 1550 µM
[26] = Drug metabolism in New Zealand rabbit aqueous humor of eyeball assessed as 3-(hydroxymethyl)benzoic acid metabolite formation at 1.55 mM TOP administration on eye measured after 4 hr by LC-MS/MS analysis; format: ADME, tissue-based, Oryctolagus cuniculus; details: in vivo, topical_or_ocular, 1550 µM
[27] = Toxicity in New Zealand rabbit assessed as appearance of conjunctival congestion by measuring ocular irritation score at 0.03 % TOP administration on left eye measured after 1 day by draize eye irritation test; format: tissue-based, Oryctolagus cuniculus; details: in vivo, topical_or_ocular, 24 h
[28] = Toxicity in New Zealand rabbit assessed as appearance of conjunctival congestion by measuring ocular irritation score at 0.03 % TOP administration on left eye measured after 2 days by draize eye irritation test; format: tissue-based, Oryctolagus cuniculus; details: in vivo, topical_or_ocular, 48 h, time 2 day
[29] = Toxicity in New Zealand rabbit assessed as appearance of conjunctival congestion by measuring ocular irritation score at 0.03 % TOP administration on left eye measured after 3 days by draize eye irritation test; format: tissue-based, Oryctolagus cuniculus; details: in vivo, topical_or_ocular, 72 h, time 3 day
[30] = Toxicity in New Zealand rabbit assessed as appearance of conjunctival congestion by measuring ocular irritation score at 0.03 % TOP administration on left eye measured after 4 days by draize eye irritation test; format: tissue-based, Oryctolagus cuniculus; details: in vivo, topical_or_ocular, 96 h, time 4 day
[31] = Toxicity in New Zealand rabbit assessed as appearance of conjunctival congestion by measuring ocular irritation score at 0.03 % TOP administration on left eye measured after 5 days by draize eye irritation test; format: tissue-based, Oryctolagus cuniculus; details: in vivo, topical_or_ocular, 120 h, time 5 day
[32] = Toxicity in New Zealand rabbit assessed as appearance of conjunctival congestion by measuring ocular irritation score at 0.03 % TOP administration on left eye measured after 6 days by draize eye irritation test; format: tissue-based, Oryctolagus cuniculus; details: in vivo, topical_or_ocular, 144 h, time 6 day
[33] = Toxicity in New Zealand rabbit assessed as appearance of conjunctival congestion by measuring ocular irritation score at 0.03 % TOP administration on left eye measured after 7 days by draize eye irritation test; format: tissue-based, Oryctolagus cuniculus; details: in vivo, topical_or_ocular, 168 h, time 7 day
[34] = Toxicity in chicken embryo chorioallantoic membrane assessed as irritation score at 1.55 mM measured after 5 mins by microscopic analysis relative to Netarsudil; format: tissue-based, Gallus gallus; details: in vivo, 1550 µM
[35] = Toxicity in chicken embryo chorioallantoic membrane assessed as irritation score at 1.55 mM measured after 5 mins in presence of PTIO by microscopic analysis; format: tissue-based, Gallus gallus; details: in vivo, 1550 µM
[36] = Toxicity in chicken embryo chorioallantoic membrane assessed as irritation score at 1.55 mM measured after 5 mins in presence of NS 2028 by microscopic analysis; format: tissue-based, Gallus gallus; details: in vivo, 1550 µM
[37] = Drug metabolism in New Zealand rabbit cornea assessed as (S)-3-amino-2-(4-(hydroxymethyl)phenyl)-N-(isoquinolin-6-yl)propanamide Dimethanesulfonate metabolite formation at 1.55 mM TOP administration on eye measured upto 6 hrs by LC-MS/MS analysis; format: ADME, tissue-based, Oryctolagus cuniculus; details: in vivo, topical_or_ocular, 1550 µM
Oryctolagus cuniculus [38] = experiment: Anti-glaucoma activity in methylcellulose-induced acute intraocular hypertensive New Zealand rabbit model assessed as reduction in intraocular pressure at 1.55 mM,TOP administration on conjunctival sac measured for 1 to 4 hrs; format: functional, organism-based; details: time 1-4 hrs
Oryctolagus cuniculus [39] = experiment: Anti-glaucoma activity in methylcellulose-induced acute intraocular hypertensive New Zealand rabbit model assessed as reduction in intraocular pressure at 1.55 mM,TOP administration on conjunctival sac measured for 5 to 7 hrs; format: functional, organism-based; details: time 5-7 hrs

**Q.** With `CS(=O)(=O)O.CS(=O)(=O)O.NC[C@@H](C(=O)Nc1ccc2cnccc2c1)c1ccc(COC(=O)c2cccc(CO[N+](=O)[O-])c2)cc1` as the compound, how does the IC50 [1] read?
**A.** 1.26 nM

**Q.** And the IC50 [2]?
**A.** 0.66 nM

**Q.** What about the fold change (FC) [3] of the same compound?
**A.** 28

**Q.** And the fold change (FC) [4]?
**A.** 38

**Q.** What about the Activity (Oryctolagus cuniculus [5]) of the same compound?
**A.** Active

**Q.** And the Activity (Oryctolagus cuniculus [6])?
**A.** Active

**Q.** What about the Activity (Oryctolagus cuniculus [7]) of the same compound?
**A.** Active

**Q.** And the Activity (Oryctolagus cuniculus [8])?
**A.** inactive

**Q.** And the Activity (Mus musculus [9])?
**A.** Active

**Q.** And the Activity (Mus musculus [10])?
**A.** Active

**Q.** And the Activity (Mus musculus [11])?
**A.** Active

**Q.** What about the Activity (Mus musculus [12]) of the same compound?
**A.** Active

**Q.** What about the Activity (Mus musculus [13]) of the same compound?
**A.** Active

**Q.** What about the “Drug uptake(free)” value [14] of the same compound?
**A.** 14.12 ng/g

**Q.** What about the Drug metabolism [15] of the same compound?
**A.** 371.53 ng/g

**Q.** What about the “Drug uptake(free)” value [16] of the same compound?
**A.** Not Active

**Q.** And the Drug metabolism [17]?
**A.** Metabolite_Notdetected

**Q.** What about the Drug metabolism [18] of the same compound?
**A.** 114.73 ng/mg

**Q.** What about the Drug metabolism [19] of the same compound?
**A.** Metabolite_Detected

**Q.** What about the Drug metabolism [20] of the same compound?
**A.** 0.96 ng/mL

**Q.** And the Drug metabolism [21]?
**A.** 62.95 ng/mL

**Q.** What about the Drug metabolism [22] of the same compound?
**A.** Metabolite_Notdetected

**Q.** What about the Drug metabolism [23] of the same compound?
**A.** Metabolite_Notdetected

**Q.** And the “Drug uptake(free)” value [24]?
**A.** Active

**Q.** What about the Drug metabolism [25] of the same compound?
**A.** Metabolite_Detected

**Q.** And the Drug metabolism [26]?
**A.** 60.87 ng/mL

**Q.** And the Activity [27]?
**A.** 1.67

**Q.** What about the Activity [28] of the same compound?
**A.** 1

**Q.** What about the Activity [29] of the same compound?
**A.** 1.67

**Q.** What about the Activity [30] of the same compound?
**A.** 1.67

**Q.** And the Activity [31]?
**A.** 0.67

**Q.** And the Activity [32]?
**A.** 1

**Q.** What about the Activity [33] of the same compound?
**A.** 0.67

**Q.** And the Activity [34]?
**A.** Toxic

**Q.** And the Activity [35]?
**A.** Toxic

**Q.** What about the Activity [36] of the same compound?
**A.** Toxic

**Q.** What about the Drug metabolism [37] of the same compound?
**A.** Metabolite_Detected

**Q.** Which results are given for `CS(=O)(=O)O.CS(=O)(=O)O.NCC(C(=O)Nc1ccc2cnccc2c1)c1ccc(COC(=O)c2cccc(CO[N+](=O)[O-])c2)cc1` (centres undefined)?
**A.** IC50 [1]: 2.54 nM; IC50 [2]: 1.48 nM; Activity (Oryctolagus cuniculus [38]): Active; Activity (Oryctolagus cuniculus [39]): Active; Activity [34]: Toxic

**Q.** With `NC[C@H](C(=O)Nc1ccc2cnccc2c1)c1ccc(COC(=O)c2cccc(CO[N+](=O)[O-])c2)cc1` as the compound, how does the IC50 [1] read?
**A.** 35.4 nM

**Q.** What about the IC50 [2] of the same compound?
**A.** 25.3 nM
